# Assay results published in patent US20160128935A1, “METHOD OF TREATING AN ANIMAL” (priority 2012, published 2016).
# Test system: bacterial infections
# Experiment: Treatment of cichlids having bacterial infections by feeding injected live worms
# Assay type: in vivo
# Conditions: Emperor and Peacock Cichlids with bacterial infections; one injected live worm per fish for six days
# Protocol: Emperor Cichlids and Peacock Cichlids (fish) having bacterial infections were treated using one live food creature (a live worm) per fish for six days. Each worm was injected with Antibiotic Metronidazole at a measurement of 5 ml in syringe and the worm was injected with as much of the 5 ml as the worm would hold. The injected worms were fed to the fish individually by placing the worm adjacent the fish and feeding was confirmed by observation. The fish ate the treated worms in all cases, showing a vigorous feeding instinct for the live worms. […] It is typical to lose some fish being treated for bacterial infections.
smiles,measurement,value
Cc1ncc([N+](=O)[O-])n1CCO [Metronidazole],loss of treated fish,None of the fish so treated were lost
same,recovery time (sufficiently recovered to be salable),sufficiently recovered to be salable within seven days
